In ChEMBL document CHEMBL1158642, “Syntheses and biological evaluation of ring-C modified colchicine analogs” (Bioorg Med Chem Lett, 2010):
The source made the active and inactive calls. The calls are words filed in the database; no cut-off is given here.

What was measured:
[1] = Inhibition of microtubule polymerization at 10 uM after 10 mins
PC-3 = test: Cytotoxicity against human PC3 cells after 72 hrs by crystal violet staining; assay type: functional, cell-based; settings: PC-3, 72 h
MCF7 = test: Cytotoxicity against human MCF7 cells after 72 hrs by crystal violet staining; assay type: functional, cell-based; settings: MCF7, 72 h

Row | Structure (SMILES) | Activity [1] | IC50 (PC-3) [nM] | IC50 (MCF7) [nM]
1 | COC1=C[C@H]2C3=C([C@@H](ON2c2cccc(C)n2)C1=O)[C@@H](NC(C)=O)CCc1cc(OC)c(OC)c(OC)c13 | Active | 25 | 20
2 | COc1cc2c(c(OC)c1OC)-c1ccc(OC)c(=O)cc1[C@@H](NC(C)=O)CC2 [COLCHICINE] | Active | 20 | –
3 | CCc1cccc(N2O[C@H]3C(=O)C(OC)=C[C@H]2C2=C3[C@@H](NC(C)=O)CCc3cc(OC)c(OC)c(OC)c32)n1 | – | 23 | 22
4 | COC1=C[C@H]2C3=C([C@@H](ON2c2ccccn2)C1=O)[C@@H](NC(C)=O)CCc1cc(OC)c(OC)c(OC)c13 | Active | 28 | 17
5 | COC1=C[C@@H]2ON(c3cnoc3C)[C@@H](C1=O)C1=C2c2c(cc(OC)c(OC)c2OC)CC[C@@H]1NC(C)=O | inactive | 245 | 250
6 | COC1=C[C@H]2C3=C([C@@H](ON2c2cc(C)on2)C1=O)[C@@H](NC(C)=O)CCc1cc(OC)c(OC)c(OC)c13 | Active | 250 | 190
7 | COC1=C[C@H]2C3=C([C@@H](ON2c2cc(C)ccn2)C1=O)[C@@H](NC(C)=O)CCc1cc(OC)c(OC)c(OC)c13 | – | 14 | 10
